Data taken from patent publication US10040791B2, “Isoxazole derivative as mutant isocitrate dehydrogenase 1 inhibitor” (Daiichi Sankyo Company, Limited, priority 2014, dated 2018).
Where a name gives a salt, the structure may show the parent alone.

Legend:
[1] = tested on: HT1080 xenografted mice (IDH1R132C); assay: 2-HG production inhibitory activity using HT1080 xenografted mice; type: in vivo, mouse; conditions: 2-HG production, HT1080 xenografted mice; for response vs control in vivo at 75 mg/kg: Mus musculus, HT-1080, po, 6 h, read-out: Test Example 5 Ratio (%)
Experimental: HT1080 xenografted mice having successfully engrafted tumors were given by oral gavage each compound at 75 mg/kg a total of three times twice a day. The compound was suspended in a vehicle solution at 7.5 mg/mL using a homogenizer. Then, the suspension was stored at −20° C., thawed immediately before the administration, and given to mice. A negative control group for the test was given a vehicle by oral gavage. The body weights of the mice were measured using an automatic balance for small animals. The dosing solution was administered at a dose of 10 mL/kg body weight.
6 hours after the final administration, each mouse was euthanized with carbon dioxide. A portion of a tumor was collected, and its weight was measured using an electronic balance. Then, the tumor was frozen on dry ice. To the frozen tumor, methanol was added in an amount of 14 times the tumor weight. The resulting tumor was homogenized with Beads shocker (Yasui Kikai Corp.) and then incubated for 15 minutes in a freezer at −20° C. After centrifugation at 15000 rpm at 4° C. for 15 minutes using a high-speed refrigerated microcentrifuge, 250 μL of methanol and 400 μL of ultrapure water were added to 150 μL of the obtained supernatant. The prepared samples were subjected to 2-HG measurement.

[2] = tested on: HT-1080 cells expressing IDH1R132C; assay: 2-HG production inhibitory activity using HT1080 cell; type: cell-based, human; conditions: Homo sapiens, HT-1080; 2-HG production, HT1080 cells; read-out: Test Example 3 IC50
Experimental: Then, 100 μL of growth medium B was added to each well, further 25 μL of a solution of each compound diluted to a predetermined concentration with growth medium B was added to each well, and the cells were incubated at 37° C. for 2 days under 5% CO2. […] Then, 150 μL of ultrapure water was further added to each well, and the mixture was stirred by pipetting and stored at −20° C.
The preserved solutions were thawed at room temperature.

[3] = molecular target: IDH1R132C (Homo sapiens (Human), UniProt O75874, R132C); assay: Inhibitory activity against IDH1R132C enzyme (NADPH detection, WST-8); type: biochemical; conditions: 10 nM, residual NADPH detected with WST-8, read-out: Test Example 1 IDH1 R132C IC50
Experimental: After transformation of Rosetta 2 (DE3) E. coli, the expression of the protein was induced with IPTG.
While NADPH-derived fluorescence was occasionally monitored, the reaction was terminated by the addition of 5 μL of 0.5 M EDTA before consumption of NADPH. 5 μL of WST-8 reagent (Dojindo Laboratories, #CK04) was further added and mixed therewith. 15 minutes later, the absorbance at 450 nm was measured using a plate reader (PerkinElmer, Inc., EnVision). The observed absorbance value reflects the amount of residual NADPH. From the absorbance data, the enzyme inhibitory activity of each compound at each concentration was calculated and analyzed using medical statistical analysis software GraphPad Prism to calculate an IC50 value.

Chain of IDH1R132C (O75874 whole entry R132C): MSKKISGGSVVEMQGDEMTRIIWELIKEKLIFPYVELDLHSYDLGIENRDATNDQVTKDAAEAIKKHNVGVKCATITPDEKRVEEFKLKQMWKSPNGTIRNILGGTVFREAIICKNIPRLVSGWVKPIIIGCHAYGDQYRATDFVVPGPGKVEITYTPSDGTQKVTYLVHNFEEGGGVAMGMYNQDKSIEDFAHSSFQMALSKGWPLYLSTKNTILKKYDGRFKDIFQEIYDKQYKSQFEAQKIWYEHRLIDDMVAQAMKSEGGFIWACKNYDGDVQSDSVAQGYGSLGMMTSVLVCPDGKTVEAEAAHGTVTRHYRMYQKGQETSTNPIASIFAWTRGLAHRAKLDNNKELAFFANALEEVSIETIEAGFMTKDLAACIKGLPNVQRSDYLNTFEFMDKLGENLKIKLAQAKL

| IC50 [2] [nM] | IC50 [3] [nM] | Structure (SMILES) | response vs control in vivo at 75 mg/kg [1] [%] | Test Example 5 Ratio (%) [1] [%] |
| --- | --- | --- | --- | --- |
| 104 | 144 | C=CC(=O)N1CCN(c2onc(-c3c(Cl)cc(Cl)cc3Cl)c2C(=O)n2ccc3c(/C=C/C(=O)O)cccc32)C(C)C1 (stereo in doubt) [Example 146, (2E)-3-[1-({5-[(2R)-4-Acryloyl-2-methylpiperazin-1-yl]-3-(2,4,6-trichlorophenyl)-1,2-oxazol-4-yl}carbonyl)-1H-indol-4-yl]prop-2-enoic acid] | 38 | – |
| 33 | 56 | CC1(c2onc(-c3c(Cl)cc(Cl)cc3Cl)c2C(=O)n2ccc3c(/C=C/C(=O)O)cccc32)COC1 [Example 1, (2E)-3-(1-{[5-(3-Methyloxetan-3-yl)-3-(2,4,6-trichlorophenyl)-1,2-oxazol-4-yl]carbonyl}-1H-indol-4-yl)prop-2-enoic acid] | 21 | – |
| 18 | 47 | Cc1cn(C(=O)c2c(-c3c(Cl)cc(Cl)cc3Cl)noc2C2(C)COC2)c2cccc(/C=C/C(=O)O)c12 [Example 2, (2E)-3-(3-Methyl-1-{[5-(3-methyloxetan-3-yl)-3-(2,4,6-trichlorophenyl)-1,2-oxazol-4-yl]carbonyl}-1H-indol-4-yl)prop-2-enoic acid] | 18 | – |
| 60 | 64 | COC1(c2onc(-c3c(Cl)cc(Cl)cc3Cl)c2C(=O)n2ccc3c(/C=C/C(=O)O)cccc32)COC1 [Example 3, (2E)-3-(1-{[5-(3-Methoxyoxetan-3-yl)-3-(2,4,6-trichlorophenyl)-1,2-oxazol-4-yl]carbonyl}-1H-indol-4-yl)prop-2-enoic acid] | 42 | – |
| 27 | 56 | COC1(c2onc(-c3c(Cl)cc(Cl)cc3Cl)c2C(=O)n2cc(C)c3c(/C=C/C(=O)O)cccc32)COC1 [Example 4, (2E)-3-(1-{[5-(3-Methoxyoxetan-3-yl)-3-(2,4,6-trichlorophenyl)-1,2-oxazol-4-yl]carbonyl}-3-methyl-1H-indol-4-yl)prop-2-enoic acid] | 15 | – |
| 22 | 55 | CC1(c2onc(-c3c(Cl)cc(Cl)cc3Cl)c2C(=O)n2cc3c4c(cccc42)/C(=C/C(=O)O)CC3)COC1 [Example 8, (2E)-[1-{[5-(3-Methyloxetan-3-yl)-3-(2,4,6-trichlorophenyl)-1,2-oxazol-4-yl]carbonyl}-3,4-dihydrobenzo[cd]indol-5(1H)-ylidene]ethanoic acid] | 67 | – |
| 50 | 179 | Cc1cn(C(=O)c2c(-c3c(Cl)cc(Cl)cc3Cl)noc2C2(C)CCC2)c2cccc(/C=C/C(=O)O)c12 [Example 10, (2E)-3-(3-Methyl-1-{[5-(1-methylcyclobutyl)-3-(2,4,6-trichlorophenyl)-1,2-oxazol-4-yl]carbonyl}-1H-indol-4-yl)prop-2-enoic acid] | 27 | – |
| 24 | 144 | COC1(c2onc(-c3c(Cl)cc(Cl)cc3Cl)c2C(=O)n2cc3c4c(cccc42)/C(=C/C(=O)O)CC3)CCC1 [Example 12, (2E)-[1-{[5-(1-Methoxycyclobutyl)-3-(2,4,6-trichlorophenyl)-1,2-oxazol-4-yl]carbonyl}-3,4-dihydrobenzo[cd]indol-5(1H)-ylidene]ethanoic acid] | 7 | – |
| 51 | 148 | CC(C)(F)c1onc(-c2c(Cl)cc(Cl)cc2Cl)c1C(=O)n1cc2c3c(cccc31)/C(=C/C(=O)O)CC2 [Example 13, (2E)-[1-{[5-(2-Fluoropropan-2-yl)-3-(2,4,6-trichlorophenyl)-1,2-oxazol-4-yl]carbonyl}-3,4-dihydrobenzop[cd]indol-5(1H)-ylidene]ethanoic acid] | 28 | – |
| 89 | 107 | CC(C)(F)c1onc(-c2c(F)cc(Cl)cc2Cl)c1C(=O)n1cc2c3c(cccc31)/C(=C/C(=O)O)CC2 [Example 16, (2E)-[1-{[3-(2,4-Dichloro-6-fluorophenyl)-5-(2-fluoropropan-2-yl)-1,2-oxazol-4-yl]carbonyl}-3,4-dihydrobenzo[cd]indol-5(1H)-ylidene]ethanoic acid] | 32 | – |
| 136 | 162 | CC(C)(F)c1onc(-c2c(Cl)cc(Cl)cc2Cl)c1C(=O)n1ccc2c3c(ccc21)CCC(C(=O)O)C3 (centres unmarked) [Example 18, 3-{[5-(2-Fluoropropan-2-yl)-3-(2,4,6-trichlorophenyl)-1,2-oxazol-4-yl]carbonyl}-6,7,8,9-tetrahydro-3H-Benzo[e]indole-8-carboxylic acid] | 56 | – |
| 337 | – | Cc1cn(C(=O)c2c(-c3c(Cl)cc(Cl)cc3Cl)noc2C(F)(F)F)c2cccc(/C=C/C(=O)O)c12 [Example 61, (2E)-3-(3-Methyl-1-{[3-(2,4,6-trichlorophenyl)-5-(trifluoromethyl)-1,2-oxazol-4-yl]carbonyl}-1H-indol-4-yl)prop-2-enoic acid] | 63 | – |
| 281 | – | Cc1cn(C(=O)c2c(-c3ccc(Cl)cc3Cl)noc2C2(C)COC2)c2cccc(/C=C/C(=O)O)c12 [Example 78, (2E)-3-(1-{[3-(2,4-Dichlorophenyl)-5-(3-methyloxetan-3-yl)-1,2-oxazol-4-yl]carbonyl}-3-methyl-1H-indol-4-yl)prop-2-enoic acid] | 50 | – |
| 42 | – | Cc1cn(C(=O)c2c(-c3c(Cl)cc(Cl)cc3Cl)noc2C2(C#N)CCC2)c2cccc(/C=C/C(=O)O)c12 [Example 93, (2E)-3-(1-{[5-(1-Cyanocyclobutyl)-3-(2,4,6-trichlorophenyl)-1,2-oxazol-4-yl]carbonyl}-3-methyl-1H-indol-4-yl)prop-2-enoic acid] | 119 | – |
| 330 | – | Cn1cc(C(=O)c2c(-c3c(Cl)cc(Cl)cc3Cl)noc2C(C)(C)C)c2cccc(/C=C/C(=O)O)c21 [Example 164] | 89 | – |
| – | – | Cc1cn(C(=O)c2c(-c3c(Cl)cc(Cl)cc3Cl)noc2C(C)(C)F)c2cccc(/C=C/C(=O)O)c12 [Example 168, (2E)-3-(1-{[5-(2-Fluoropropan-2-yl)-3-(2,4,6-trichlorophenyl)-1,2-oxazol-4-yl]carbonyl}-3-methyl-1H-indol-4-yl)prop-2-enoic acid tert-butylamine salt] | 13 | – |
| – | – | Cc1cn(C(=O)c2c(-c3c(F)cc(Cl)cc3Cl)noc2C(C)(C)F)c2cccc(/C=C/C(=O)O)c12 [Example 169, (2E)-3-(1-{[3-(2,4-Dichloro-6-fluorophenyl)-5-(2-fluoropropan-2-yl)-1,2-oxazol-4-yl]carbonyl}-3-methyl-1H-indol-4-yl)prop-2-enoic acid tert-butylamine salt] | – | 17 |
| – | – | Cc1cn(C(=O)c2c(-c3c(F)cc(Cl)cc3F)noc2C(C)(C)F)c2cccc(/C=C/C(=O)O)c12 [Example 170, (2E)-3-(1-{[3-(4-Chloro-2,6-difluorophenyl)-5-(2-fluoropropan-2-yl)-1,2-oxazol-4-yl]carbonyl}-3-methyl-1H-indol-4-yl)prop-2-enoic acid tert-butylamine salt] | – | 35 |
| – | – | Cc1cc(Cl)cc(C)c1-c1noc(C(C)(C)F)c1C(=O)n1cc(C)c2c(/C=C/C(=O)O)cccc21 [Example 171, (2E)-3-(1-{[3-(4-Chloro-2,6-dimethylphenyl)-5-(2-fluoropropan-2-yl)-1,2-oxazol-4-yl]carbonyl}-3-methyl-1H-indol-4-yl)prop-2-enoic acid tert-butylamine salt] | – | 22 |
| – | – | Cc1cc(Cl)cc(Cl)c1-c1noc(C(C)(C)F)c1C(=O)n1cc(C)c2c(/C=C/C(=O)O)cccc21 [Example 172, (2E)-3-(1-{[3-(2,4-Dichloro-6-methylphenyl)-5-(2-fluoropropan-2-yl)-1,2-oxazol-4-yl]carbonyl}-3-methyl-1H-indol-4-yl)prop-2-enoic acid tert-butylamine salt] | – | 8 |
| – | – | Cc1cn(C(=O)c2c(-c3ccc(Cl)cc3Cl)noc2C(C)(C)F)c2cccc(/C=C/C(=O)O)c12 [Example 173, (2E)-3-(1-{[3-(2,4-Dichlorophenyl)-5-(2-fluoropropan-2-yl)-1,2-oxazol-4-yl]carbonyl}-3-methyl-1H-indol-4-yl)prop-2-enoic acid tert-butylamine salt] | – | 2 |
